Test systems include OVCAR-4 ovarian; SNB-19 CNS; NCI/ADR-RES ovarian; MALME-3M melanoma; T-47D breast; MDA-MB-435; CAKI-1 renal; PC-3 prostate.
What all share (assay): growth of human tumour cells (NCI), 48 h

Molecules are shown by their SMILES.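 Exposure lasted 48 hours, with cells grown in 96-well plates and compounds tested at five concentrations. GI50: concentration for 50% inhibition of growth. At the TGI there is no net growth.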 Bounds are passed on as bounds.

With `OCCN1CCN(CCCN2c3ccccc3Sc3ccc(Cl)cc32)CC1`, the GI50 in the experiment with OVCAR-4 ovarian was 4.49 µM; with SNB-19 CNS it was 2.3 µM; in the experiment with NCI/ADR-RES ovarian, 2.72 µM; in the experiment on MALME-3M melanoma, 1.79 µM; with T-47D breast, 1.91 µM; with MDA-MB-435, 1.72 µM. In addition, the GI50 in the experiment with CAKI-1 renal was 1.71 µM; with PC-3 prostate, 2.64 µM. In addition, the TGI was found to be 17.4 µM with OVCAR-4 ovarian; 5.7 µM with SNB-19 CNS; 9.91 µM with NCI/ADR-RES ovarian; 3.59 µM with MALME-3M melanoma; 5.56 µM in the experiment with T-47D breast; 3.33 µM in the experiment with MDA-MB-435. The TGI was determined as 4.52 µM with CAKI-1 renal and 12 µM in the experiment with PC-3 prostate.

As for `COc1ccc2c(c1)/C(=C\c1c(-c3cc(OC)ccc3OC)nc3sc(C)cn13)C(=O)N2C`, the GI50 is 20.9 µM in the experiment with OVCAR-4 ovarian; 58.9 µM in the experiment with SNB-19 CNS; 27.4 µM with NCI/ADR-RES ovarian; over 100 µM in the experiment with MALME-3M melanoma; 29.7 µM with T-47D breast; 26.5 µM in the experiment on MDA-MB-435. Also, the GI50 in the experiment with CAKI-1 renal was 18.3 µM; in the experiment on PC-3 prostate it was 16.3 µM. Besides, the TGI with OVCAR-4 ovarian is over 100 µM; with SNB-19 CNS it was over 100 µM; in the experiment on NCI/ADR-RES ovarian, over 100 µM; with MALME-3M melanoma, over 100 µM; with T-47D breast, over 100 µM; in the experiment with MDA-MB-435, 79.9 µM. The TGI came out at 86 µM in the experiment on CAKI-1 renal and 93.8 µM in the experiment on PC-3 prostate.

Turning to `Cc1cc2nc3c4cc(O)ccc4n(CCN(C)C)c3nc2cc1C`, the GI50 in the experiment with OVCAR-4 ovarian was 1.34 µM; in the experiment with SNB-19 CNS, 0.609 µM; in the experiment with NCI/ADR-RES ovarian, 0.499 µM; in the experiment on MALME-3M melanoma it was 1.14 µM; in the experiment on T-47D breast, 1.28 µM; with MDA-MB-435, 1.07 µM. The GI50 in the experiment on CAKI-1 renal was 0.337 µM; in the experiment on PC-3 prostate, 0.578 µM. Also, the TGI in the experiment with OVCAR-4 ovarian is 3.63 µM; with SNB-19 CNS it was 12.3 µM; in the experiment with NCI/ADR-RES ovarian, 4.2 µM; in the experiment with MALME-3M melanoma, 2.41 µM; with T-47D breast it was over 100 µM; in the experiment with MDA-MB-435, 2.36 µM. In addition, the TGI with CAKI-1 renal is 2.11 µM; with PC-3 prostate it was 2.3 µM.

For the compound `COC(=O)c1n[nH]c(C)c1N=NN(C)CCC#N`, the TGI in the experiment on OVCAR-4 ovarian is 30.7 µM; with SNB-19 CNS, 87 µM; with NCI/ADR-RES ovarian it was 36.4 µM; in the experiment on MALME-3M melanoma it was 34.6 µM; in the experiment with T-47D breast, 93 µM; in the experiment on MDA-MB-435, over 100 µM. Also, the figures for the TGI in the experiment on CAKI-1 renal and in the experiment on PC-3 prostate were 33.4 µM and 74.7 µM, respectively.

`O=Nc1ccc(O)c(=O)cc1`: the GI50 was 1.71 µM with OVCAR-4 ovarian; 13.5 µM in the experiment on SNB-19 CNS; 2.6 µM in the experiment on NCI/ADR-RES ovarian; 1.21 µM in the experiment with MALME-3M melanoma; 1.76 µM with T-47D breast; 3.28 µM in the experiment with MDA-MB-435. The GI50 with CAKI-1 renal was 0.936 µM; in the experiment with PC-3 prostate it was 3.77 µM. In addition, the TGI in the experiment on OVCAR-4 ovarian turned out to be 4.83 µM; in the experiment on SNB-19 CNS, 27.3 µM; in the experiment with NCI/ADR-RES ovarian it was 10.6 µM; in the experiment with MALME-3M melanoma, 4.14 µM; in the experiment on T-47D breast, 4.28 µM; in the experiment with MDA-MB-435, 13.2 µM. Moreover, the TGI with CAKI-1 renal was determined as 5.8 µM; with PC-3 prostate, 16.2 µM.

Take `CC(=O)Nc1ccc2c(c1)C(c1ccccc1Cl)=Nc1c(n[nH]c1C)N2`: the GI50 with OVCAR-4 ovarian was over 15.9 µM; in the experiment on SNB-19 CNS, 6.36 µM; in the experiment on NCI/ADR-RES ovarian, over 25 µM; with MALME-3M melanoma it was over 25 µM; in the experiment with T-47D breast, 8.38 µM; in the experiment on MDA-MB-435, over 20 µM. Moreover, the GI50 was 2.84 µM in the experiment with CAKI-1 renal and over 25 µM with PC-3 prostate. Moreover, the TGI in the experiment with OVCAR-4 ovarian is over 25 µM; with SNB-19 CNS, over 25 µM; in the experiment on NCI/ADR-RES ovarian, over 25 µM; with MALME-3M melanoma, over 25 µM; in the experiment on T-47D breast it was over 23.6 µM; in the experiment with MDA-MB-435, over 25 µM. Moreover, the TGI in the experiment with CAKI-1 renal is over 22.5 µM; in the experiment with PC-3 prostate, over 25 µM.

With `COC[C@@H](N=C1NC(=O)/C(=C/c2ccc3ncccc3c2)S1)c1ccccc1`, the GI50 in the experiment with OVCAR-4 ovarian was 5.16 µM; with SNB-19 CNS it was 8.82 µM; in the experiment with NCI/ADR-RES ovarian, 11.6 µM; with MALME-3M melanoma it was over 23.1 µM; in the experiment on T-47D breast, 8.43 µM; with MDA-MB-435 it was 9.12 µM. Moreover, the figures for the GI50 with CAKI-1 renal and in the experiment with PC-3 prostate were 6.2 µM and 12.1 µM, respectively. Further, the TGI in the experiment with OVCAR-4 ovarian, in the experiment on SNB-19 CNS, with NCI/ADR-RES ovarian, with MALME-3M melanoma, with T-47D breast and in the experiment with MDA-MB-435 was over 25 µM in each case. The TGI is over 22.4 µM with CAKI-1 renal and over 25 µM in the experiment with PC-3 prostate.

For `CC(C)(C)c1ccc(S(=O)(=O)Oc2ccc3c4c(c(=O)oc3c2)CCCCC4)cc1`, the GI50 is 8.13 µM in the experiment with OVCAR-4 ovarian; 16.4 µM in the experiment with SNB-19 CNS; 13.9 µM in the experiment with NCI/ADR-RES ovarian; 24.8 µM with MALME-3M melanoma; 5.17 µM in the experiment with T-47D breast; 34.6 µM with MDA-MB-435. Further, the results for the GI50 in the experiment on CAKI-1 renal and in the experiment with PC-3 prostate were 10.9 µM and 2.22 µM, respectively. In addition, the TGI in the experiment on OVCAR-4 ovarian was 40.7 µM; in the experiment with SNB-19 CNS it was 52.1 µM; with NCI/ADR-RES ovarian it was over 100 µM; with MALME-3M melanoma it was 76.5 µM; in the experiment on T-47D breast it was over 100 µM; in the experiment with MDA-MB-435, over 100 µM. Moreover, the TGI is 43.5 µM in the experiment on CAKI-1 renal and over 100 µM in the experiment on PC-3 prostate.

Turning to `CCSCC1CC(O)(c2ccccc2)CC(c2ccc(F)cc2)O1` (stereo unspecified), the GI50 in the experiment with OVCAR-4 ovarian was 2.69 µM; in the experiment with SNB-19 CNS, 2.63 µM; in the experiment with NCI/ADR-RES ovarian it was 2.44 µM; in the experiment on MALME-3M melanoma, 1.56 µM; in the experiment on T-47D breast, 2.23 µM; in the experiment with MDA-MB-435, 2.04 µM. Moreover, the GI50 was 2.42 µM with CAKI-1 renal and 1.82 µM with PC-3 prostate. Besides, the TGI was determined as 11.5 µM in the experiment on OVCAR-4 ovarian; 9.36 µM in the experiment with SNB-19 CNS; 6.66 µM with NCI/ADR-RES ovarian; 3.51 µM with MALME-3M melanoma; 8.24 µM with T-47D breast; 4.36 µM with MDA-MB-435. In addition, the TGI was 8.16 µM with CAKI-1 renal and 4.89 µM in the experiment on PC-3 prostate.
